Earlier results on 4 molecules are cited in US6110491A, “Compound-loaded liposomes and methods for their preparation” (Hermes Biosciences, Inc., priority 1997, dated 2000).

For this series the following is noted: cited from earlier work; for pH-dependent solubility: 37° C.

In brackets after ≈: the same amount, converted by molar mass. Where two headings read alike, the source gives them in different places. Bounds are passed on as bounds.

In the case of `Nc1cc(-c2ccncc2)c[nH]c1=O` [amrinone], the pH dependent solubility was 25 mg/ml (pH 4.1), 0.9 mg/ml (pH 6) and 0.9 mg/ml (pH 8).

As to `CCn1cc(C(=O)O)c(=O)c2cc(F)c(N3CCNCC3)cc21` [norfloxacin], the pH-dependent solubility reads like this: (pH 6.5) 2.8 mg/ml; (pH 7.0) 1.5 mg/ml; (pH 8.0) 1.9 mg/ml; (pH <5.5) greater than 40 mg/ml.

In the case of `CC(C)Cc1ccc(C(C)C(=O)O)cc1` (centres unmarked) [ibuprofen], the “solubility (in words)” value reads like this: (alkaline pH) “soluble at alkaline pH”; (neutral pH) “poorly soluble at neutral pH”.

Regarding `Nc1nc(O)c2ncn(COC(CO)CO)c2n1` [gancyclovir], the solubility in water is, setting by setting: (alkaline pH) greater than 100 mg/mL; (pH 7.4) 2.5 mg/mL (≈ 9.79 mM).
